Source: the kinase profiling compilation of Christmann-Franck et al. (2016)
“And” between values parts separate entries of the source, which are not always exact repeats. Equal values may be shown once. Each block holds one molecule with its values, some of them ahead of it.

Columns and labels:
Assay in all cases: Caliper, Mobility shift assay off-chip
MINK1 (human) = MINK1 (human) (UniProt Q8N4C8)
MELK (human) = MELK (human) (UniProt Q14680)
TXK (human) = TXK (human) (UniProt P42681)
PRKCB1 (human) = PRKCB1 (human) (UniProt P05771)
CDK1 (human) = CDK1 (human) (UniProt P06493)
DYRK2 (human) = DYRK2 (human) (UniProt Q92630)
CSK (human) = CSK (human) (UniProt P41240)
CSNK1A1 (human) = CSNK1A1 (human) (UniProt P48729)
TYRO3 (human) = TYRO3 (human) (UniProt Q06418)
MARK2 (human) = MARK2 (human) (UniProt Q7KZI7)
ALK (human) = ALK (human) (UniProt Q9UM73)
INSRR (human) = INSRR (human) (UniProt P14616)
MAP4K2 (human) = MAP4K2 (human) (UniProt Q12851)
ROS1 (human) = ROS1 (human) (UniProt P08922)
SRMS (human) = SRMS (human) (UniProt Q9H3Y6)
SRMS (human), sequence (Q9H3Y6 whole entry, looked up): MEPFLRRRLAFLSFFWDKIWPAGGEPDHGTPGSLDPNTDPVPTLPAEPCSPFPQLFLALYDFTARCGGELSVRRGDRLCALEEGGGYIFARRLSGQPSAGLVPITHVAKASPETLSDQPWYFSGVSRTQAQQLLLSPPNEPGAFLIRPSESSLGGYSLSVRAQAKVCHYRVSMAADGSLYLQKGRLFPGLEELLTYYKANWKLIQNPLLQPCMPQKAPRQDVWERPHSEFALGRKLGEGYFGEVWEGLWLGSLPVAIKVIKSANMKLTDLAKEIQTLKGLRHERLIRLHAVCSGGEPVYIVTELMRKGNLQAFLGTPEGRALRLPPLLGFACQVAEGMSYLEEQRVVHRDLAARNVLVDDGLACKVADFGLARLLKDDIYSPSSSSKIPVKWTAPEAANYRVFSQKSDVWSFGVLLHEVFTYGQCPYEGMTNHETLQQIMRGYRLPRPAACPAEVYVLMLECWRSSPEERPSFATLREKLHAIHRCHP

NTRK3 (human) = NTRK3 (human) (UniProt Q16288)
NTRK3 (human), sequence (Q16288 whole entry, looked up): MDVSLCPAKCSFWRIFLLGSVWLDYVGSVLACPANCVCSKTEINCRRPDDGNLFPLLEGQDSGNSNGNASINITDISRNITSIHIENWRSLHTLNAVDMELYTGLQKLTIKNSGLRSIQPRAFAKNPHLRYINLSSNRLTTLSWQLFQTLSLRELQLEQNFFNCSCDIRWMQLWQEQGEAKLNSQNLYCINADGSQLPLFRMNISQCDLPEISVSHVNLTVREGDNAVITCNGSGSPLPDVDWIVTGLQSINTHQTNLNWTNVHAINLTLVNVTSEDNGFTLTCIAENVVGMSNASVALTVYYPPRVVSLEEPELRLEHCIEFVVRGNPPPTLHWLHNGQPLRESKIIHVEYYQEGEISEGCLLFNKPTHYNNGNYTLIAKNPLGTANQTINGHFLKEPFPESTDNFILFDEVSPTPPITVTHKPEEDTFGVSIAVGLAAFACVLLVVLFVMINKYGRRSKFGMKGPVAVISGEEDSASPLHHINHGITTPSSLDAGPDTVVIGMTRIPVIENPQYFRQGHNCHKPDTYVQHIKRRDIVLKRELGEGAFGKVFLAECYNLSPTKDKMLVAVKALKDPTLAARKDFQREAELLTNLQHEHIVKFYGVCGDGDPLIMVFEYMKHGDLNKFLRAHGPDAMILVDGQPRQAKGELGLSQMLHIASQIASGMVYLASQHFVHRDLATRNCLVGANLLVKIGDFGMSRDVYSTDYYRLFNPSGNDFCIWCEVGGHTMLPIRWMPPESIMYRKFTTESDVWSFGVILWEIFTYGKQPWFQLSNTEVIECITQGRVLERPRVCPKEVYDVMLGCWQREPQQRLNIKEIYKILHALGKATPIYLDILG

CDK5 (human) = CDK5 (human) (UniProt Q00535)
SLK (human) = SLK (human) (UniProt Q9H2G2)
SLK (human), sequence (Q9H2G2 whole entry, looked up): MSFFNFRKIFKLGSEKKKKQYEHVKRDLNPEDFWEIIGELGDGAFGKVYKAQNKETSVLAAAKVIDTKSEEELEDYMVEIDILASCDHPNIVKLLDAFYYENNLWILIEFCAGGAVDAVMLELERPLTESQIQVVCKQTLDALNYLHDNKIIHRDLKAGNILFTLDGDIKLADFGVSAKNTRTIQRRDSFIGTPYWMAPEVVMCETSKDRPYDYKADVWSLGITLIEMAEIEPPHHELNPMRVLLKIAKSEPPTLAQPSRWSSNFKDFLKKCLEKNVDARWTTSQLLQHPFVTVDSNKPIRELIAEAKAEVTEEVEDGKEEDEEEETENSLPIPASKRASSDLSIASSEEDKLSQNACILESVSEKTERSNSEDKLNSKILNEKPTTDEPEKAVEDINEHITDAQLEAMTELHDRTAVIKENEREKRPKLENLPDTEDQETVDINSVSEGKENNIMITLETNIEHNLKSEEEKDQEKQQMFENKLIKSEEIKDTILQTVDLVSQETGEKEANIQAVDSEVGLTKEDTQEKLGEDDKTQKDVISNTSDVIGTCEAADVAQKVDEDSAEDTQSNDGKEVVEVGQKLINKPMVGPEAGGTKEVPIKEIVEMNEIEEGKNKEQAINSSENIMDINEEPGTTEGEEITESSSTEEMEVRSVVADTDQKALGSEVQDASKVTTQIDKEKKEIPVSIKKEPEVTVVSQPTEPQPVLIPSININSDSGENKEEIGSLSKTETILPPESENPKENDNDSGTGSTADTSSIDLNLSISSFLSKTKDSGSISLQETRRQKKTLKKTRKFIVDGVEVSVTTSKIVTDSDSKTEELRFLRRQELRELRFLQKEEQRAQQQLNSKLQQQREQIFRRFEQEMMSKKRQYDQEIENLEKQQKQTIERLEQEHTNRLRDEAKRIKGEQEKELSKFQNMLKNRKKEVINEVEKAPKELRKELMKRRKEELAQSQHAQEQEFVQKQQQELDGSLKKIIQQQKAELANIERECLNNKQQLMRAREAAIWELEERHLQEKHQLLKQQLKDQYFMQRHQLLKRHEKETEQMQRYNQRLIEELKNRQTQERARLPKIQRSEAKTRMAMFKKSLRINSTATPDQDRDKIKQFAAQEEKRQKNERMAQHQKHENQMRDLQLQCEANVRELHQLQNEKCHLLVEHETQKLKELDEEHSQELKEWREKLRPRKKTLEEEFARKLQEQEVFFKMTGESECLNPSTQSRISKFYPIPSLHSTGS

DYRK3 (human) = DYRK3 (human) (UniProt O43781)
DYRK3 (human), sequence (O43781 whole entry, looked up): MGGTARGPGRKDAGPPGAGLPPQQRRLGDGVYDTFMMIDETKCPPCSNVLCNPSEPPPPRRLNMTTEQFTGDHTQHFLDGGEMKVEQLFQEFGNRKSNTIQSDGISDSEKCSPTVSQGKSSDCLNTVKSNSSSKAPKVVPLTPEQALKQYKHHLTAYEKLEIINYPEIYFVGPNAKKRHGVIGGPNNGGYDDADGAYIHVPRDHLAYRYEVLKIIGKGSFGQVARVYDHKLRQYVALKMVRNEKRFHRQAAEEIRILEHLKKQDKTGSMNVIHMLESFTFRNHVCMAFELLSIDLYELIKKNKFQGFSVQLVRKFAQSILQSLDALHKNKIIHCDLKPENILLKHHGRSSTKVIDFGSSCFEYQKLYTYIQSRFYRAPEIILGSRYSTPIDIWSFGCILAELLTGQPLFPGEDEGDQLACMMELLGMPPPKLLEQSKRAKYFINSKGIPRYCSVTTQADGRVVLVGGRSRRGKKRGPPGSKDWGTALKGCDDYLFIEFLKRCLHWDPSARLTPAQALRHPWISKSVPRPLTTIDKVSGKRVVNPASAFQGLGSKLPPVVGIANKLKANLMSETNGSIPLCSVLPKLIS

MST4 (human) = MST4 (human) (UniProt Q9P289)
MST4 (human), sequence (Q9P289 whole entry, looked up): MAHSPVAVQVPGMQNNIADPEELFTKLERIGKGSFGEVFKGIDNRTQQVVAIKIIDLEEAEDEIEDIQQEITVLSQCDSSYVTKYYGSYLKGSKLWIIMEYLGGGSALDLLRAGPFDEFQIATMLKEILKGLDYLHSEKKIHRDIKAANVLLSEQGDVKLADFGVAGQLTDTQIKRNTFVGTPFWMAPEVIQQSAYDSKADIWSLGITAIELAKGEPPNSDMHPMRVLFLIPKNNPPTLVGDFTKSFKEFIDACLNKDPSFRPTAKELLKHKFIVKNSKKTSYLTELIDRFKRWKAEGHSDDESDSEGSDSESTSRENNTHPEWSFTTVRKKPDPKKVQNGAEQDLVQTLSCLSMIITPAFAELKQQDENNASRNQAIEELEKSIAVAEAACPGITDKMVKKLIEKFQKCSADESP

PLK1 (human) = PLK1 (human) (UniProt P53350)
PLK1 (human), sequence (P53350 whole entry, looked up): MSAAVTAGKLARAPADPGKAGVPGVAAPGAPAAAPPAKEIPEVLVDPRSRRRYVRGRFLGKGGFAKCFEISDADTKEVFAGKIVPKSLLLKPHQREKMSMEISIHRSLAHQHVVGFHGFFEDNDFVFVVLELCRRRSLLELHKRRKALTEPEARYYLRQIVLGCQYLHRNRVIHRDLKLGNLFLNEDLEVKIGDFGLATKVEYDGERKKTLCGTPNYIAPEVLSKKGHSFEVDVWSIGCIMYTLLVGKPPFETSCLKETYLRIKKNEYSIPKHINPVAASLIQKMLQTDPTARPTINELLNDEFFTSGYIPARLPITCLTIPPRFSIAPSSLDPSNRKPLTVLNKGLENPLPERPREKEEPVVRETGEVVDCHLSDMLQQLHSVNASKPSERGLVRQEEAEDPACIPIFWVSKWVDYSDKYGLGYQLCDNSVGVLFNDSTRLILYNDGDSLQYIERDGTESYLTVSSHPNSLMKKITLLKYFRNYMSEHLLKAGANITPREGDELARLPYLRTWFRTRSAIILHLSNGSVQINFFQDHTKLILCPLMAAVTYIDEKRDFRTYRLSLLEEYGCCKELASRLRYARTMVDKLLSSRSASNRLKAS

SRPK3 (human) = SRPK3 (human) (UniProt Q9UPE1)
FGFR1 (human) = FGFR1 (human) (UniProt P11362)
PIM1 (human) = PIM1 (human) (UniProt P11309)
TNK2 (human) = TNK2 (human) (UniProt Q07912)
MAP4K4 (human) = MAP4K4 (human) (UniProt O95819)
PRKAA2 (human) = PRKAA2 (human) (UniProt P54646)
CDK7 (human) = CDK7 (human) (UniProt P50613)
EPHA4 (human) = EPHA4 (human) (UniProt P54764)
PRKACG (human) = PRKACG (human) (UniProt P22612)
PRKACG (human), sequence (P22612 whole entry, looked up): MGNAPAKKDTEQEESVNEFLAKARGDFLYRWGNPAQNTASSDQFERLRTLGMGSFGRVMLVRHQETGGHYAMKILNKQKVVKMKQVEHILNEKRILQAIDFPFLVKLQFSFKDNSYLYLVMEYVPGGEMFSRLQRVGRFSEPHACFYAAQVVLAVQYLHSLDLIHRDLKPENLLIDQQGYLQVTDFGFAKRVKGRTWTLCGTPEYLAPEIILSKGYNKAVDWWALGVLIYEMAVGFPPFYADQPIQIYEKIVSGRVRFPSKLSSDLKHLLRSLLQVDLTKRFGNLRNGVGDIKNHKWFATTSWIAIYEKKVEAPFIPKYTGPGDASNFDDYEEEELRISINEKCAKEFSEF

TAB1 (human) = TAB1 (human) (UniProt Q15750)
RPS6KB2 (human) = RPS6KB2 (human) (UniProt Q9UBS0)
MAPK14 (human) = MAPK14 (human) (UniProt Q16539)
CLK1 (human) = CLK1 (human) (UniProt P49759)
EPHA5 (human) = EPHA5 (human) (UniProt P54756)

TXK (human), sequence (P42681 whole entry, looked up): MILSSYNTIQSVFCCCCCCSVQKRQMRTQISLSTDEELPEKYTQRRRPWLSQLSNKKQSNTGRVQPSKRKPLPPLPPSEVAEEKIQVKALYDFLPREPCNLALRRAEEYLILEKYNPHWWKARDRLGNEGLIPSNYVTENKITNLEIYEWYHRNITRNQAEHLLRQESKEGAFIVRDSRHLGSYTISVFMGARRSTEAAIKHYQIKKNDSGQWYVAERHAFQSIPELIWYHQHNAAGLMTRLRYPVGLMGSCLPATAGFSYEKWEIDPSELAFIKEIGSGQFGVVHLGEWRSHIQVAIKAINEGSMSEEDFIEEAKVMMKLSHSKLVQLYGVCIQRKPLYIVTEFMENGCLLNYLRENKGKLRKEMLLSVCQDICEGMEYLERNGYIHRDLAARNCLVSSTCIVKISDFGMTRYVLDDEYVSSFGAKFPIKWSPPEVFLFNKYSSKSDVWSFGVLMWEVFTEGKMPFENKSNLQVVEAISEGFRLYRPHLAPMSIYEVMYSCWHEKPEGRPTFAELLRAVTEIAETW

inhibition (MINK1 (human); compound 0.02 µM): 3.5%
inhibition (MINK1 (human); compound 0.2 µM): 2.9%
inhibition (MELK (human); compound 0.02 µM): 6.6%
inhibition (MELK (human); compound 0.2 µM): 10%
inhibition (TXK (human); compound 0.02 µM): -0.7%
inhibition (TXK (human); compound 0.2 µM): -0.1%
inhibition (PRKCB1 (human); compound 0.02 µM): 5.1% and 8.3%
inhibition (PRKCB1 (human); compound 0.2 µM): 7.3% and 7.5%
inhibition (CDK1 (human); compound 0.02 µM): -0.7%
inhibition (CDK1 (human); compound 0.2 µM): -3.2%
inhibition (DYRK2 (human); compound 0.02 µM): 13.4%
inhibition (DYRK2 (human); compound 0.2 µM): -5.6%
inhibition (CSK (human); compound 0.02 µM): -6.7%
inhibition (CSK (human); compound 0.2 µM): -6.3%
inhibition (CSNK1A1 (human); compound 0.02 µM): -5.9%
inhibition (CSNK1A1 (human); compound 0.2 µM): -7.9%
inhibition (TYRO3 (human); compound 0.02 µM): 7.9%
inhibition (TYRO3 (human); compound 0.2 µM): 40.5%
inhibition (MARK2 (human); compound 0.02 µM): 6.9%
inhibition (MARK2 (human); compound 0.2 µM): 9.2%
inhibition (ALK (human); compound 0.02 µM): 5.8%
inhibition (ALK (human); compound 0.2 µM): 10.6%
inhibition (INSRR (human); compound 0.02 µM): -0.3%
inhibition (INSRR (human); compound 0.2 µM): 13.3%
inhibition (MAP4K2 (human); compound 0.02 µM): 2.6%
inhibition (MAP4K2 (human); compound 0.2 µM): 18.4%
inhibition (ROS1 (human); compound 0.02 µM): 0.6%
inhibition (ROS1 (human); compound 0.2 µM): 0.4%
inhibition (SRMS (human); compound 0.02 µM): -0.7%
inhibition (SRMS (human); compound 0.2 µM): -1.7%
inhibition (NTRK3 (human); compound 0.02 µM): 1.6%
inhibition (NTRK3 (human); compound 0.2 µM): 1.8%
inhibition (CDK5 (human); compound 0.02 µM): 0.8%
inhibition (CDK5 (human); compound 0.2 µM): -4.2%
inhibition (SLK (human); compound 0.02 µM): 37.5%
inhibition (SLK (human); compound 0.2 µM): 85%
inhibition (DYRK3 (human); compound 0.02 µM): -7.2%
inhibition (DYRK3 (human); compound 0.2 µM): -7.9%
inhibition (MST4 (human); compound 0.02 µM): -7.3%
inhibition (MST4 (human); compound 0.2 µM): -3%
inhibition (PLK1 (human); compound 0.02 µM): -0.1%
inhibition (PLK1 (human); compound 0.2 µM): -2%
inhibition (SRPK3 (human); compound 0.02 µM): -3.4%
inhibition (SRPK3 (human); compound 0.2 µM): 0.3%
inhibition (FGFR1 (human); compound 0.02 µM): 52.9%
inhibition (FGFR1 (human); compound 0.2 µM): 91.2%
inhibition (PIM1 (human); compound 0.02 µM): -2.8%
inhibition (PIM1 (human); compound 0.2 µM): -8.3%
inhibition (TNK2 (human); compound 0.02 µM): -6.7%
inhibition (TNK2 (human); compound 0.2 µM): -5.4%
inhibition (MAP4K4 (human); compound 0.02 µM): -0.2%
inhibition (MAP4K4 (human); compound 0.2 µM): 15.5%
inhibition (PRKAA2 (human); compound 0.02 µM): 5.1%
inhibition (PRKAA2 (human); compound 0.2 µM): 6%
inhibition (CDK7 (human); compound 0.02 µM): -5.4%
inhibition (CDK7 (human); compound 0.2 µM): -4.5%
inhibition (EPHA4 (human); compound 0.02 µM): -4.1%
inhibition (EPHA4 (human); compound 0.2 µM): -2.4%
inhibition (PRKACG (human); compound 0.02 µM): -4.7%
inhibition (PRKACG (human); compound 0.2 µM): -1.4%
inhibition (TAB1 (human); compound 0.02 µM): 5.3%
inhibition (TAB1 (human); compound 0.2 µM): 8.9%
inhibition (RPS6KB2 (human); compound 0.02 µM): 1%
inhibition (RPS6KB2 (human); compound 0.2 µM): 0.6%
inhibition (MAPK14 (human); compound 0.02 µM): -4.9%
inhibition (MAPK14 (human); compound 0.2 µM): -4.9%
inhibition (CLK1 (human); compound 0.02 µM): 8.1%
inhibition (CLK1 (human); compound 0.2 µM): -6.1%
inhibition (EPHA5 (human); compound 0.02 µM): -0.9%
inhibition (EPHA5 (human); compound 0.2 µM): 7.6%
Structure (SMILES): COc1cc2c(Oc3ccc4[nH]c(C)cc4c3F)ncnc2cc1OCCCN1CCCC1

inhibition (MINK1 (human); compound 0.02 µM): 2%
inhibition (MINK1 (human); compound 0.2 µM): 10.8%
inhibition (MELK (human); compound 0.02 µM): 8.1%
inhibition (MELK (human); compound 0.2 µM): 12.4%
inhibition (TXK (human); compound 0.02 µM): 3.3%
inhibition (TXK (human); compound 0.2 µM): 27.4%
inhibition (PRKCB1 (human); compound 0.02 µM): 3% and 5.4%
inhibition (PRKCB1 (human); compound 0.2 µM): 0.8% and 5.1%
inhibition (CDK1 (human); compound 0.02 µM): -2.9%
inhibition (CDK1 (human); compound 0.2 µM): -1.5%
inhibition (DYRK2 (human); compound 0.02 µM): 0.6%
inhibition (DYRK2 (human); compound 0.2 µM): 4.1%
inhibition (CSK (human); compound 0.02 µM): -4.8%
inhibition (CSK (human); compound 0.2 µM): -0.7%
inhibition (CSNK1A1 (human); compound 0.02 µM): -4.9%
inhibition (CSNK1A1 (human); compound 0.2 µM): -7%
inhibition (TYRO3 (human); compound 0.02 µM): 2.3%
inhibition (TYRO3 (human); compound 0.2 µM): 10.6%
inhibition (MARK2 (human); compound 0.02 µM): 9.3%
inhibition (MARK2 (human); compound 0.2 µM): 12%
inhibition (ALK (human); compound 0.02 µM): 10.1%
inhibition (ALK (human); compound 0.2 µM): 7.9%
inhibition (INSRR (human); compound 0.02 µM): 0.1%
inhibition (INSRR (human); compound 0.2 µM): 0.3%
inhibition (MAP4K2 (human); compound 0.02 µM): 2.6%
inhibition (MAP4K2 (human); compound 0.2 µM): 28.7%
inhibition (ROS1 (human); compound 0.02 µM): 17.8%
inhibition (ROS1 (human); compound 0.2 µM): 69.7%
inhibition (SRMS (human); compound 0.02 µM): 1.1%
inhibition (SRMS (human); compound 0.2 µM): 25.2%
inhibition (NTRK3 (human); compound 0.02 µM): 5.4%
inhibition (NTRK3 (human); compound 0.2 µM): 9.1%
inhibition (CDK5 (human); compound 0.02 µM): -0.3%
inhibition (CDK5 (human); compound 0.2 µM): 0.9%
inhibition (SLK (human); compound 0.02 µM): 9%
inhibition (SLK (human); compound 0.2 µM): 12.3%
inhibition (DYRK3 (human); compound 0.02 µM): -2.2%
inhibition (DYRK3 (human); compound 0.2 µM): -1.4%
inhibition (MST4 (human); compound 0.02 µM): -9.1%
inhibition (MST4 (human); compound 0.2 µM): -4%
inhibition (PLK1 (human); compound 0.02 µM): -0.7%
inhibition (PLK1 (human); compound 0.2 µM): -2.2%
inhibition (SRPK3 (human); compound 0.02 µM): -1.1%
inhibition (SRPK3 (human); compound 0.2 µM): 2.1%
inhibition (PIM1 (human); compound 0.02 µM): -4.2%
inhibition (PIM1 (human); compound 0.2 µM): 0.8%
inhibition (TNK2 (human); compound 0.02 µM): -5.7%
inhibition (TNK2 (human); compound 0.2 µM): -3.6%
inhibition (MAP4K4 (human); compound 0.02 µM): 3.9%
inhibition (MAP4K4 (human); compound 0.2 µM): 24.6%
inhibition (PRKAA2 (human); compound 0.02 µM): 7%
inhibition (PRKAA2 (human); compound 0.2 µM): -6.6%
inhibition (CDK7 (human); compound 0.02 µM): -1.6%
inhibition (CDK7 (human); compound 0.2 µM): -2.2%
inhibition (EPHA4 (human); compound 0.02 µM): -4.7%
inhibition (EPHA4 (human); compound 0.2 µM): 0.2%
inhibition (PRKACG (human); compound 0.02 µM): -6.9%
inhibition (PRKACG (human); compound 0.2 µM): -6.6%
inhibition (TAB1 (human); compound 0.02 µM): 6.5%
inhibition (TAB1 (human); compound 0.2 µM): 6%
inhibition (RPS6KB2 (human); compound 0.02 µM): 4.3%
inhibition (RPS6KB2 (human); compound 0.2 µM): 6.7%
inhibition (MAPK14 (human); compound 0.02 µM): -9%
inhibition (MAPK14 (human); compound 0.2 µM): -2.5%
inhibition (CLK1 (human); compound 0.02 µM): -4.3%
inhibition (CLK1 (human); compound 0.2 µM): 6.6%
inhibition (EPHA5 (human); compound 0.02 µM): -2.7%
inhibition (EPHA5 (human); compound 0.2 µM): 4.7%
Structure (SMILES): Cc1ccc(Nc2nccc(N(C)c3ccc4c(C)n(C)nc4c3)n2)cc1S(N)(=O)=O
